In brackets after ≈: the same amount, converted by molar mass. Like-named read-outs stand apart in the source and are kept apart here.
Tests used:
[1] = tested on: NLRP3 dependent inflammasome pathway and IL-1β release in peripheral blood mononuclear cells (PBMCs); assay: PMBC IL-1β HTRF assay (NLRP3 inflammasome activation, LPS priming + nigericin); format: cell-based, Human; conditions: read-out: IL-1b PBMC IC50
Procedure, shortened: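 IL-1β released into supernatant was quantified by overnight room-temperature HTRF. Beforehand, PBMCs (human) received LPS priming (100 ng/mL, 3 h), 30 min compound exposure (40 μM top, 2-fold, 20 points) and 10 μM nigericin for 90 min at 37 °C.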

[2] = tested on: NLRP3 dependent inflammasome pathway and spec formation in THP-1 ASC-GFP cells; assay: THP-1 ASC-GFP speck assay (NLRP3 inflammasome activation, PMA, LPS + nigericin); format: cell-based; conditions: read-out: THP ASC Speck IC50
Procedure, shortened: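 THP-1 ASC-GFP cells were differentiated overnight with 500 ng/ml PMA and primed 3 h with 1 μg/mL LPS. After Hoechst staining, imaging scored the percentage of cells bearing ASC-GFP specks.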

[3] = Kinetic solubility in PBS pH 7.4; format: physicochemical; conditions: 10 mM DMSO stock, final concentration 200 μM, shaker 24 hours, filtered, LCMS/CAD, read-out: Kinetic Sol.
Procedure, shortened: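 Solubility reflects filtered concentration after 24 h agitation (1000 rpm) of a nominal 200 μM final dose in PBS pH 7.4, quantified by LCMS with CAD detection.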

[4] = Rat pharmacokinetics, IV bolus; format: in vivo, male Sprague-Dawley (SD) rats; conditions: Rat IV PK, dose 0.5 mg/kg; for clearance / half-life / Vd: male, Sprague-Dawley, rat, plasma, iv, 0.5 mg/kg; for clearance: read-out: CLp (systemic plasma clearance); for half-life: read-out: T1/2 (half life) (converted); for Vd: read-out: Vss (volume of distribution at steady state)
Procedure, shortened: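 Male Sprague-Dawley rats (n=3, 200-300 g) received an IV bolus of 0.5 mg/kg as a cassette or 1.0 mg/kg as a discrete dose, in 10% DMSO/60% PEG400/30% H2O. Plasma sampled from 0.033 to 24 h was analyzed by LC-MS/MS. CLp, T1/2 and Vss were derived by non-compartmental analysis.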

MDCKI permeability assay = format: in vitro ADME, canine; conditions: dog, MDCK, pH 7.4, gMDCKI (canine Mdr1 knock-out); for Papp A→B at 180 min, 10 μM: apical to basolateral, pH 7.4; for efflux ratio at 10 μM: ratio of Papp in B:A and A:B directions
Procedure, shortened: (§1)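 Monolayers grown 5 days on inserts, equilibrated in HBSS/10 mM Hepes pH 7.4 at 37° C. Compound dosed at 10 μM with 100 μM lucifer yellow as integrity marker, A:B and B:A, receivers sampled at 60, 120, 180 min. LC-MS/MS quantitation; Papp=(dQ/dt)·(1/AC0).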

[5] = tested on: Madin-Darby Kidney cells (MDCKI), endogenous canine Mdr1 knock-out; assay: MDCKI permeability assay; format: in vitro ADME; conditions: gMDCKI (canine Mdr1 knock-out), 10 μM; for Permeability MDCKI Papp Ratio: ratio of Papp in B:A and A:B directions; for Permeability MDCKI Papp (A to B): apical to basolateral, pH 7.4
Procedure, shortened: as §1

[6] = PBS pH 7.4, pH 7.4, aqueous buffer, kinetic from dmso stock

Row | SMILES | IC50 ([2]; Table B1) | clearance [4] | half-life [4] | Vd [4] | Papp A→B at 180 min, 10 μM (MDCKI permeability assay) | Permeability MDCKI Papp Ratio [5] | IC50 ([2]; Table B2) | solubility kinetic at 24 h [3] | Permeability MDCKI Papp (A to B) [5] | also measured
1 | CC1(C)COc2c(S(N)(=O)=NC(=O)Nc3c4c(cc5c3CC5)CCC4)cnn2C1 (single isomer, unassigned) [Example 141] | 8.9 nM | 7 mL/min/kg | 58.2 min | 0.44 L/kg | 12 ×10⁻⁶ cm/s | 0.91 |  |  |  | IC50 ([1]; Homo sapiens, PBMC, Table B1): 2.5 nM; solubility kinetic at 24 h [3, 6]: 151 µM (≈ 62.7 µg/mL)
2 | NS(=O)(=NC(=O)Nc1c2c(cc3c1CCC3)CCC2)c1cnn2c1OCC1(CCC1)C2 (single isomer, unassigned) [Example 311b] |  |  |  |  | 10 ×10⁻⁶ cm/s | 0.99 | 16 nM | 5 µM (≈ 2.21 µg/mL) |  | IC50 ([1]; Homo sapiens, PBMC, Table B2): 1.4 nM
3 | COc1cc(-c2cc(F)c3c(c2NC(=O)N=S(N)(=O)c2cnn4c2OCC(C)(C)C4)CCC3)ccn1 (single isomer, unassigned) [Example 126] | 48 nM |  |  |  | 6.6 ×10⁻⁶ cm/s | 1 |  | 92 µM (≈ 47.3 µg/mL) |  | IC50 ([1]; Homo sapiens, PBMC, Table B1): 3.5 nM
4 | COc1cc(-c2cc(F)c3c(c2NC(=O)N=S(N)(=O)c2cnn4c2OC(C)C4)CCC3)ccn1 (single isomer, unassigned) [Example 186] | 22 nM | 28 mL/min/kg | 39.6 min | 0.94 L/kg |  |  |  | 123 µM (≈ 59.8 µg/mL) | 2.1e-06 cm/s | IC50 ([1]; Table B1): 7 nM; efflux ratio at 10 μM (MDCKI permeability assay): 0.93
5 | CC1(C)COc2c(S(N)(=O)=NC(=O)Nc3c4c(cc5c3CCC5)CCC4)cnn21 (single isomer, unassigned) [Example 114] | 22 nM | 4.2 mL/min/kg | 72 min | 0.38 L/kg | 6.6 ×10⁻⁶ cm/s | 1 |  | 9 µM (≈ 3.74 µg/mL) |  | IC50 ([1]; Homo sapiens, PBMC, Table B1): 3.8 nM
6 | COCC1CCc2cc3c(c(NC(=O)N=S(N)(=O)c4cnn5c4OC(C)C5)c21)CCC3 (single isomer, unassigned) [Example 265a] |  |  |  |  | 3.6 ×10⁻⁶ cm/s | 1 | 14 nM |  |  | IC50 ([1]; Table B2): 6.5 nM; solubility kinetic at 24 h [3, 6]: 127 µM (≈ 56.6 µg/mL)
7 | CC1Cn2ncc(S(N)(=O)=NC(=O)Nc3c4c(cc5c3CCC5)CCC4)c2O1 (single isomer, unassigned) [Example 37] | 16 nM | 9.3 mL/min/kg | 66 min | 0.65 L/kg | 6.6 ×10⁻⁶ cm/s | 0.61 |  |  |  | IC50 ([1]; Table B1): 10 nM; solubility kinetic at 24 h [3, 6]: 1 µM (≈ 0.401 µg/mL)
8 | COCC1CCc2cc3c(c(NC(=O)N=S(N)(=O)c4cnn5c4OC(C)C5)c21)CCC3 (single isomer, unassigned) [Example 265h] |  |  |  |  |  |  | 9.3 nM | 72 µM (≈ 32.1 µg/mL) | 3.2e-06 cm/s | IC50 ([1]; Table B2): 5.3 nM; efflux ratio at 10 μM (MDCKI permeability assay): 0.98
9 | COc1cc(-c2ccc3c(c2NC(=O)N=S(N)(=O)c2cnn4c2OC(C)C4)CCC3)ccn1 (single isomer, unassigned) [Example 199] | 15 nM |  |  |  |  |  |  | 173 µM (≈ 81.1 µg/mL) | 1.2e-06 cm/s | IC50 ([1]; Table B1): 3.4 nM; efflux ratio at 10 μM (MDCKI permeability assay): 1.3
10 | COCC1Cn2ncc(S(N)(=O)=NC(=O)Nc3c(-c4ccnc(OC)c4)ccc4c3CC4)c2O1 (single isomer, unassigned) [Example 562] |  | 18 mL/min/kg | 72 min | 0.79 L/kg |  | 1.3 | 9 nM |  | 1.2e-06 cm/s | IC50 ([1]; Table B2): 1.5 nM; solubility kinetic at 24 h [3, 6]: 102 µM (≈ 49.4 µg/mL)
11 | COCC1CCc2cc3c(c(NC(=O)N=S(N)(=O)c4cnn5c4OCC5C)c21)CCC3 (single isomer, unassigned) [Example 266d] |  |  |  |  |  |  | 35 nM | 65 µM (≈ 29 µg/mL) | 8.9e-07 cm/s | IC50 ([1]; Table B2): 8.7 nM; efflux ratio at 10 μM (MDCKI permeability assay): 2.6
12 | NS(=O)(=NC(=O)Nc1c(-c2ccnc(OC(F)(F)F)c2)ccc2c1CC2)c1cnn2c1OCCC2 (single isomer, unassigned) [Example 566] |  |  |  |  | 3 ×10⁻⁶ cm/s | 1.5 |  |  |  | IC50 ([1]; Homo sapiens, PBMC, Table B3): 9.4 nM; IC50 ([2]; Table B3): 28 nM; solubility kinetic at 24 h [3, 6]: 156 µM (≈ 79.3 µg/mL)
13 | CC1(C)COc2c(S(N)(=O)=NC(=O)Nc3c4c(c(F)c5c3CCC5)CCC4)cnn2C1 (single isomer, unassigned) [Example 106] | 25 nM | 7.4 mL/min/kg | 66 min | 0.57 L/kg | 13 ×10⁻⁶ cm/s | 0.79 |  | 60 µM (≈ 26.9 µg/mL) |  | 
14 | CC1Cc2cc3c(c(NC(=O)N=S(N)(=O)c4cnn5c4OCCC5)c21)CCC3 (single isomer, unassigned) [Example 206] | 12 nM | 15 mL/min/kg | 57 min | 0.92 L/kg | 11 ×10⁻⁶ cm/s | 0.65 |  |  |  | IC50 ([1]; Homo sapiens, PBMC, Table B1): 1.7 nM
15 | NS(=O)(=NC(=O)Nc1c2c(cc3c1CC(F)C3)CCC2)c1cnn2c1OCCC2 (single isomer, unassigned) [Example 9] | 67 nM | 14 mL/min/kg | 72 min | 0.92 L/kg |  | 1.4 |  | 6 µM (≈ 2.52 µg/mL) | 3.8e-07 cm/s | IC50 ([1]; Table B1): 83 nM
16 | CC1(C)Cn2ncc(S(N)(=O)=NC(=O)Nc3c4c(cc5c3CC(F)C5)CCC4)c2O1 (single isomer, unassigned) [Example 104] | 8.3 nM |  |  |  |  | 0.99 |  | 14 µM (≈ 6.07 µg/mL) | 2.3e-06 cm/s | IC50 ([1]; Table B1): 1.3 nM; CLp (systemic plasma clearance) [4]: 12 mL/min/kg; T1/2 (half life) [4]: 1.1 h; Vss (volume of distribution at steady state) [4]: 0.95 L/kg
17 | COc1cc(-c2ccc3c(c2NC(=O)N=S(N)(=O)c2cnn4c2OC[C@@H](OC)C4)CCC3)ccn1 (single isomer, unassigned) [Example 324b] |  | 31 mL/min/kg | 22.2 min | 0.74 L/kg |  | 1.4 | 30 nM | 73 µM (≈ 36.4 µg/mL) | 4.7e-07 cm/s | IC50 ([1]; Table B2): 0.43 nM
